Where “and” joins values, the source holds several entries; their conditions need not be identical. Identical values can stand only once. Inconclusive results and toxic doses are left out.
System: P388 leukemia ip, CD2F1 mice, survival T/C
Experiment: NCI In Vivo Anticancer Drug Screen. Data for tumor model P388 Leukemia (intraperitoneal) in CD2F1 (CDF1) mice
Details: endpoint: median survival time, higher = longer survival
In short: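 Mice carrying the transplanted tumor received test compound or vehicle. Survival was recorded in each group, and the value is the treated-group measurement divided by that of the vehicle-treated control group.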

[1] = dose: 50.0 mg/kg/injection, schedule: Q01DX009 (ip), vehicle: saline with Tween-80
[2] = dose: 100.0 mg/kg/injection, schedule: Q01DX009 (ip), vehicle: saline with Tween-80
[3] = dose: 50.0 mg/kg/injection, schedule: Q01DX005 (ip), vehicle: saline with Tween-80
[4] = dose: 100.0 mg/kg/injection, schedule: Q01DX005 (ip), vehicle: saline with Tween-80
[5] = dose: 200.0 mg/kg/injection, schedule: Q01DX005 (ip), vehicle: saline with Tween-80
[6] = dose: 60.0 mg/kg/injection, schedule: Q01DX005 (ip), vehicle: saline with Tween-80
[7] = dose: 120.0 mg/kg/injection, schedule: Q01DX005 (ip), vehicle: saline with Tween-80
[8] = dose: 50.0 mg/kg/injection, schedule: Q01DX009 (ip), vehicle: Klucel (hydroxypropylcellulose) (HPC)
[9] = dose: 100.0 mg/kg/injection, schedule: Q01DX009 (ip), vehicle: Klucel (hydroxypropylcellulose) (HPC)
[10] = dose: 200.0 mg/kg/injection, schedule: Q01DX009 (ip), vehicle: Klucel (hydroxypropylcellulose) (HPC)
[11] = dose: 100.0 mg/kg/injection, schedule: Q01DX001 (ip), vehicle: saline with Tween-80
[12] = dose: 200.0 mg/kg/injection, schedule: Q01DX001 (ip), vehicle: saline with Tween-80
[13] = dose: 400.0 mg/kg/injection, schedule: Q01DX001 (ip), vehicle: saline with Tween-80

Cc1cc([N+](=O)[O-])c([N+](=O)[O-])cc1Cl
T/C (dose: 50.0 mg/kg/injection, schedule: Q01DX001 (ip), vehicle: other): 100 % of control
T/C (dose: 100.0 mg/kg/injection, schedule: Q01DX001 (ip), vehicle: other): 100 % of control
T/C (dose: 200.0 mg/kg/injection, schedule: Q01DX001 (ip), vehicle: other): 105 % of control

O=C(CNC(=O)OCc1ccccc1)Oc1ccccc1[N+](=O)[O-]
T/C [1]: 94 % of control
T/C [2]: 100 % of control
T/C (dose: 200.0 mg/kg/injection, schedule: Q01DX009 (ip), vehicle: saline with Tween-80): 111 % of control

Nc1ccc(-c2cc(O)ccc2N)cc1
T/C (dose: 25.0 mg/kg/injection, schedule: Q01DX009 (ip), vehicle: saline with Tween-80): 100 % of control
T/C [1]: 117 % of control
T/C [2]: 110 % of control

Clc1ccc(/C=C/c2ccccn2)cc1
T/C [3]: 91 % of control
T/C [4]: 90 % of control
T/C [5]: 91 % of control

CN(C)Cc1ncccc1O
T/C (dose: 100.0 mg/kg/injection, schedule: Q01DX009 (ip), vehicle: saline): 102 % of control and 95 % of control
T/C (dose: 200.0 mg/kg/injection, schedule: Q01DX009 (ip), vehicle: saline): 100 % of control and 112 % of control
T/C (dose: 400.0 mg/kg/injection, schedule: Q01DX009 (ip), vehicle: saline): 113 % of control

CCC(=NCCCCCCN=C(CC)c1cc(O)ccc1O)c1cc(O)ccc1O.[Fe]
T/C [3]: 88 % of control
T/C [4]: 89 % of control
T/C [5]: 91 % of control

O=C1CSC(c2ccccc2Br)N1c1nncs1 (centres undefined)
T/C [6]: 101 % of control
T/C [7]: 97 % of control
T/C (dose: 240.0 mg/kg/injection, schedule: Q01DX005 (ip), vehicle: saline with Tween-80): 93 % of control

COc1cccc2c1C(=O)c1c(O)c3c(c(O)c1C2=O)C[C@@](O)(C(C)=O)C[C@@H]3OC1CC(N=CCCCC=NC2CC(O[C@H]3C[C@](O)(C(C)=O)Cc4c(O)c5c(c(O)c43)C(=O)c3c(OC)cccc3C5=O)OC(C)C2O)C(O)C(C)O1 (some centres undefined)
T/C (dose: 0.5 mg/kg/injection, schedule: Q04DX003 (ip), vehicle: distilled water + Tween-80): 104 % of control
T/C (dose: 1.0 mg/kg/injection, schedule: Q04DX003 (ip), vehicle: distilled water + Tween-80): 110 % of control
T/C (dose: 2.0 mg/kg/injection, schedule: Q04DX003 (ip), vehicle: distilled water + Tween-80): 123 % of control
T/C (dose: 16.0 mg/kg/injection, schedule: Q04DX003 (ip), vehicle: distilled water + Tween-80): 122 % of control

C=CCOc1cc2c(cc1C(C)(C)c1ccc(OC)cc1)OCO2
T/C [6]: 118 % of control
T/C [7]: 117 % of control

COC(=O)C1=C(C(=O)OC)C2C=CC1C1C(Br)C(Br)C21 (centres undefined)
T/C [8]: 100 % of control
T/C [9]: 102 % of control
T/C [10]: 100 % of control

Oc1c(-c2ccccc2)nn(O)c1-c1ccccc1
T/C (dose: 12.5 mg/kg/injection, schedule: Q01DX009 (ip), vehicle: Klucel (hydroxypropylcellulose) (HPC)): 106 % of control
T/C (dose: 25.0 mg/kg/injection, schedule: Q01DX009 (ip), vehicle: Klucel (hydroxypropylcellulose) (HPC)): 100 % of control
T/C [8]: 95 % of control

COc1cc(N(CCCl)CCCl)ccc1C=Nc1ccccc1C(=O)O
T/C (dose: 12.37 mg/kg/injection, schedule: Q04DX003 (ip), vehicle: saline with Tween-80): 195 % of control
T/C (dose: 18.75 mg/kg/injection, schedule: Q04DX003 (ip), vehicle: saline with Tween-80): 181 % of control and 268 % of control

C/C(=C1/N=C(c2ccccc2)OC1=O)c1ccc(C)cc1
T/C (dose: 50.0 mg/kg/injection, schedule: Q01DX005 (ip), vehicle: Klucel (hydroxypropylcellulose) (HPC)): 106 % of control
T/C (dose: 100.0 mg/kg/injection, schedule: Q01DX005 (ip), vehicle: Klucel (hydroxypropylcellulose) (HPC)): 90 % of control
T/C (dose: 200.0 mg/kg/injection, schedule: Q01DX005 (ip), vehicle: Klucel (hydroxypropylcellulose) (HPC)): 106 % of control

CC(=N)C(C#N)C(=S)SCCC#N (centres undefined)
T/C [8]: 97 % of control
T/C [9]: 89 % of control
T/C [10]: 106 % of control

O=C(Cc1ccccc1)NCCN1CCNCC1
T/C [11]: 105 % of control
T/C [12]: 108 % of control
T/C [13]: 96 % of control

Nc1[nH]c(=O)ncc1-c1ccc(Cl)cc1
T/C [6]: 97 % of control
T/C [7]: 96 % of control

O=S1(=O)CC(Sc2ccccc2)C1
T/C [11]: 102 % of control
T/C [12]: 96 % of control
T/C [13]: 109 % of control

From PubChem BioAssay AID330 (DTP/NCI, 2004)
